Laboratory results as given in US20150004157A1, “OSTEOPONTIN ISOFORM A INHIBITORS AND METHODS OF USE” (NEW YORK UNIVERSITY, priority 2012, published 2015).
No end group written: not given here.

Legend:
[1] = system: EMT targets in H358, A549 and H460 cell lines; test: Relative expression of EMT targets by quantitative RT-PCR in peptide treated cells; assay type: cell-based
Description: Here, mRNA was extracted from peptide treated cells and the relative expression of EMT targets evaluated by quantitative RT-PCR.

NSCLC cell surface = NSCLC cell surface binding / competitive binding assay with fluorescent (FAM) labeled peptide; assay type: cell-based; details: for binding of fluorescently labeled peptide to the surface of the NSCLC cell lines: 100 nM FAM labeled peptide, 1 hour, FIG. 6A; for displacement of fluorescent labeled exon 4 peptide from the NSCLC cell surface by competitor: recombinant protein as competitor, 30 minutes, FIGS. 6B, 6C
Description: More particularly, the peptide mimic sequence was selected that contained the PDAV region, along with a scrambled sham of the same length. Peptides were constructed and fluorescent (FAM) labeled by Think peptides (Proimmune, Sarasota, Fla.). NSCLC cell surface binding was assayed by seeding ten thousand NSCLC cells per well in a 96-well plate and allowing them to sit for overnight at 37° C. The cells were treated with 100 nM of FAM labeled Exon4 and FAM labeled scrambled peptide for 1 hour and then gently washed with 0.1% BSA in PBS for three times followed by treating with recombinant Osteopontin at 1 uM, 500 nM, 250 nM, 125 nM, 62.5 nM and 31.25 nM for 30 minutes. The cells are then washed thrice with 0.1% BSA in PBS and measured the fluorescence at […].

[2] = system: H358, A549 and H460 cell lines; test: Apoptosis assay; assay type: cell-based
H358 = test: In vitro functional assays in H358 over-expressing full-length OPNa; assay type: cell-based; details: H358, addition of the exon 4 peptide
Description: (§1) In vitro invasion, migration, proliferation and soft agar colony formation assays were performed using the H358, A549 and H460 cell lines as previously described (Goparaju et al. “Functional Heterogeneity of Osteopontin Isoforms in Non-small Cell Lung Cancer,” J Thorac Oncol 5:1516-23 (2010), which is hereby incorporated by reference in its entirety) with 100 nM of exon 4 peptide or scrambled sham peptide in experimental medium. Experiments were performed in triplicates and comparisons of effect were made between peptide and sham within each cell line.
The effects of mutated OPN and the exon 4 peptide in H358, a NSCLC cell line with low endogenous OPN expression, were insightful. This cell line has low malignant potential; however, malignant properties are increased by over-expression of full-length OPNa, but not by over-expression of OPNc or the PDAV-deleted mutant. Further, the tumorigenic effects of full-length OPNa over-expression are abolished by addition of the exon 4 peptide in this cell line.

[3] = system: H358, A549 and H460 cell lines; test: In vitro proliferation assay; assay type: cell-based
Description: as §1

A549 cells = test: Cisplatin sensitivity assay (Cell Titer Blue survival); assay type: cell-based; details: 100 nM peptide, cisplatin concentrations of 0.1-0.8 μM/ml, 48 h, FIG. 7E
Description: The effect of exon 4 peptide on sensitivity to cisplatin was evaluated by plating 10,000 A549 cells/well in a 96-well plate in triplicates. Five hours later, the medium was changed to DMEM containing 100 nM of exon 4 peptide, 100 nM of scrambled sham peptide, or no peptide. Fifteen minutes later, the medium was changed to DMEM containing […] of cisplatin for 48 h at 37° C. The cells were then assayed for survival by adding […] of Cell Titer Blue reagent for 1 h. The fluorescence was read at 560/590λ.

[4] = system: H358, A549 and H460 cell lines; test: In vitro invasion assay; assay type: cell-based
Description: as §1

[5] = target: membrane-associated protein complex on NSCLC cells (un-described cell surface receptor for OPN exon 4; H358, A549 and H460 cell surface); test: cell-based or functional assay
[6] = H358 cells with low endogenous OPN expression

“KYPDAVATWLNPDPSQK (also: FAM label) [exon 4 peptide]” was tested, and the “relative expression of TFGb1-r” value ([1]; A549 and H460 cell lines, FIG. 9A) was “significant decrease”, the “relative expression of N-cadherin” value ([1]; A549 and H460 cell lines, FIG. 9B) was “significant decrease” and the “relative expression of desmoplakin” value ([1]; A549 and H460 cell lines, FIG. 9C) was “significant increase”. For the same molecule, the “relative expression of cytokeratin-20” value ([1]; A549 and H460 cell lines, FIG. 9D) was “significant increase”, the “relative expression of the same EMT markers (TFGb1-r, N-cadherin, desmoplakin, cytokeratin-20)” value ([1]; H358 cell line with low endogenous OPN) was “lesser impact” and the “binding of fluorescently labeled peptide to the surface of the NSCLC cell lines” value (NSCLC cell surface) was “specifically binds”. The apoptosis [2, 6] was “less impact”, the apoptosis ([2]; cells with high endogenous OPN expression (A549 and H460), peptide in media, FIG. 7C) was “increased” and the “tumorigenic effects of full-length OPNa over-expression” value (H358) was “abolished”. For the same molecule, the proliferation [3, 6] was “less impact”, the proliferation ([3]; cells with high endogenous OPN expression (A549 and H460), 100 nM peptide in media, FIG. 7A) was “decreased” and the “decrease in cell viability compared to untreated or scrambled peptide (cisplatin sensitivity)” value (A549 cells) was 2 fold. The invasive capacity ([4]; FIG. 7D) was “decrease”, the invasion [4, 6] was “less impact” and the invasion ([4]; cells with high endogenous OPN expression (A549 and H460), 100 nM peptide in media, FIGS. 7B and 7D) was “decreased”. For the same molecule, the “impact of exogenous rOPNa on invasion” value ([4]; exon 4 peptide added to exogenous rOPNa, FIG. 7D) was “blocks”.

In the case of “WQKPAPLDTDPKVYANS (Scrambled Sham Peptide) [scrambled sham control of the same length as the peptide mimic, reference compound]”, the “binding of fluorescently labeled peptide to the surface of the NSCLC cell lines” value (NSCLC cell surface) is reported as “does not”.

For “rOPNa: recombinant full-length OPN (rOPNa, R&D, Minneapolis, Minn.)”, the “displacement of fluorescent labeled exon 4 peptide from the NSCLC cell surface by competitor” value (NSCLC cell surface) was “displaced by molar equivalents” and the “displacement of fluorescent labeled exon 4 peptide from the NSCLC cell surface by competitor” value (NSCLC cell surface; listed as recombinant OPN) was “able to compete the peptide off the cell surface”.

Work on KYPDAVATWLNPDPSQK (also: FAM label, position not given here) yielded a fold decrease in cell viability under cisplatin (cisplatin sensitivity, A549) [5] of 2 fold.
